Measurements published in US7056734B1, “Differentiation of non-insulin producing cells into insulin producing cells by GLP-1 or exendin-4 and uses thereof” (The United States of America as represented by the …, priority 1998, dated 2006).

Assays:
pancreata = test: Pancreas weight after continuous GLP-1 infusion; format: in vivo, rat
From the text: The pancreata of treated animals weighed 26% more than the pancreata of control animals.

Wistar rats = conditions: De Ore et al., 1997; cited from earlier work
AR42J cells [1] = test: Immunocytochemistry of insulin- and glucagon-positive AR42J cells; format: cell-based, rat
Procedure: Cell culture. AR42J cells were maintained in Dulbecco's modified Eagle's medium (DMEM) supplemented with 10% fetal calf serum (FBS), 100 IU/ml penicillin, 100 μg/ml streptomycin and 2 mM glutamine. Cells from passage 23–35 were used throughout this study. Cells were routinely plated at a density of about 10^5 cells/ml in 12-well cluster dishes or on coverslips and incubated in a humidified incubator at 37° C. with 95% air and 5% CO2.
Immunocytochemistry analysis. Cells were cultured on glass coverslips, washed with phosphate buffered saline (PBS) to remove serum, and fixed with 0.5% glutaraldehyde in PBS. Cells were permeabilized with 0.2% Triton X-100 for 5 min and the rest of the procedure was carried out at room temperature in a humidified chamber. Suction was used to remove reagents between each step but drying of specimens was avoided. Sufficient reagent was used to cover each specimen (approximately 1 or 2 drops was usually adequate). The coverslips were incubated in 0.3% H2O2 in PBS for 30 min to quench endogenous peroxidase activity and washed in PBS×3 times, followed by incubation with 2% goat serum in PBS for 30 min to block non-specific binding of IgG. Excess serum was removed by blotting. The specific primary polyclonal antisera (anti-insulin 1:300; anti-glucagon 1:300) were used. Antibody was diluted in PBS containing 1% goat serum. This was applied to the coverslip and incubated at room temperature for 1 h. The coverslips were washed ×3 times in PBS, each time for 5 min, then incubated with biotinylated second antibody for 1 h and washed ×3 times with PBS. Avidin-biotin-peroxidase complex in PBS was applied for 30 min. Immunoperoxidase labeling was performed with a Vectostain ABC kit (Vector Labs, Burlingame, Calif.). After extensive washing in PBS for 4–5 times (each 5 min), the coverslips were incubated in diaminobenzidine tetrahydrochloride (DAB) in PBS, with 0.01% hydrogen peroxide for 3 min. The reaction was stopped by washing the coverslips in PBS and examined under a light microscope. To confirm specific staining, samples incubated with preabsorbed primary antibody were used as negative control, and the insulin producing cell line RIN 1046-38 cells were used as positive control for our experiments. The avidin-biotin-peroxidase (ABC) procedure was performed according to methods known in the art (Hsu et al., 1981).

[2] = Procedure: The rats were implanted with an Alzet micro-osmotic pump (Alza Corp., Palo Alto, Calif.) in the interscapular region for 48 hrs. […] Control animals received normal saline in their pumps and received their infusion for the same length of time.
Assays. Plasma glucose was measured by the glucose oxidase method (Egan et al., 1991). […] The amount of cellular proteins was measured using the Bradford method (Bio-Rad Richmond, Calif.) using bovine γ-globulin as standard.

AR42J cells [3] = test: Intracellular calcium in single AR42J cells (indo-1); format: cell-based, rat
Procedure: Measurement of intracellular calcium, [Ca^2+]l. AR42J cells were loaded with the fluorescent Ca^2+ probe, indo-1 acetoxymethyl ester (indo-1/AM). […] Both loading with indo-1 and the experiments were carried out at room temperature (22–24° C.). […] The emission field was restricted to a single cell. Indo-1 was excited at 350±5 nm every 5 ms, and the fluorescence emission was split into wavelength bands of 410±5 and 490±5 nm. […] The cell autofluorescence was assessed in a large number of indo-1 non-loaded cells from the same batch. […] Routinely, the cells were exposed to the test solution for 240–300s. Thereafter, the test solution was washed out, while [Ca^2+]l was monitored for additional 120–180s. The test solutions were prepared just prior to the experiment by adding the hormones in standard bathing solution.

AR42J cells [4] = test: RT-PCR of insulin and glucagon mRNA in AR42J cells; format: cell-based, rat
Procedure: Reverse-transcription polymerase chain reaction (RT-PCR). Total RNA was isolated from treated AR42J cells by the methods of Chomczynski and Sacchi (1987). The total RNA samples were pretreated with DNAse in 20 mM Tris-HCL (pH 8.4), 2 mM MgCl2 and 50 mM KCl to remove any traces of contaminating genomic DNA. RT-PCR was undertaken in a volume of 50 μl of buffer containing 50 mM KCl, 10 mM Tris-HCl, 3.5 mM MgCl2, 200 μM each dNTPs, 0.4 μM each of sense and antisense primers to rat insulin I and II (insulin sense primer=5′[…]3′; insulin antisense primer=5′[…] 3′). Amplification was undertaken for 25 cycles at denaturing temperature 94° C. for 1 min, annealing temperature 60° C. for 45 sec and an extension temperature 72° C. for 1 min. mRNA from RIN 1046-38 cells were used as a positive control. In the case of glucagon RT-PCR, the denaturing and extension temperature was similar to insulin except the annealing temperature was 65° C. for 1 min (glucagon sense primer=5′ […]3′; antisense primer=5′ […]3′). The RT-PCR products were visualized by ethidium bromide staining on 2% agarose gels.

AR42J cells [5] = test: Intracellular cAMP in AR42J cells; format: cell-based, rat; conditions: 1 h; GLP-1 0.1 to 100 nM, IBMX 100 nM, CCK 0.1 to 100 nM, exendin-4 0.1 to 10 nM
Procedure: Measurement of cAMP. Cells were grown in 12-well dishes and treated with hormones and reagents±IBMX as described above. They were then washed 3 times in ice-cold PBS and lysed with 1 ml ice-cold […] perchloric acid. The lysates (950 μl) were transferred to microcentrifuge tubes and the pH adjusted to 7.0 using 5 M K2CO3. After centrifugation for 5 min at 10^4 rpm, the supernatant was vacuum dried, and then recovered in 200 μl Tris/EDTA buffer. After addition of 0.15 mM Na2CO3 (50 μl) and 0.15 mM ZnSO^4 (50 μl), followed by incubation for 15 min on ice, the salt precipitate was removed by centrifugation for 15 min at 3.5×10^3 rpm and 50 μl of supernatant was assayed using a cAMP [^3] assay kit (Amersham Corp., Arlington Heights, Ill.), (Steiner et al., 1972).

rat acinar cells = conditions: Malhotra et al. 1992, cited from earlier work
[6] = 10 nM GLP-1 or 0.1 nM exendin-4, 3 days

| Molecule | pancreas weight increase over control animals (pancreata) [%] | dose giving maximal insulin response (Wistar rats) [nmol/kg] | AR42J cells converted into insulin-positive cells (AR42J cells [1]; 1 nM GLP-1, 3 days) [%] | AR42J cells converted into insulin-positive cells (AR42J cells [1]; [6]) [%] | treated AR42J cells glucagon positive (AR42J cells [1]; 48 h, GLP-1 (10 nM)) [%] | treated AR42J cells insulin-positive (AR42J cells [1]; 48 h, GLP-1 (10 nM)) [%] | treated cells containing glucagon (AR42J cells [1]; 72 h, GLP-1 (10 nM)) | cells remaining insulin-positive (AR42J cells [1]; for at least 7 days, GLP-1 (10 nM)) [%] | plasma GLP-1 before commencement of glucose tolerance testing ([2]; 120 min after removal of pumps) | plasma GLP-1 levels relative to fasting levels ([2]; during infusion, fasting levels 10–20 pmol/l) | peak [Ca2+]i amplitude, increase over resting indo-1 fluorescence ratio (IFR) (AR42J cells [3]; single cells) | AR42J cells showing [Ca2+]i response (AR42J cells [3]; single cells, CCK 1 nM, glucagon 10 nM) | rat insulin I and II mRNA by RT-PCR (AR42J cells [4]; GLP-1-treated for 3 days, none in non-treated cells) | glucagon mRNA at 236 bp by RT-PCR (AR42J cells [4]; GLP-1-treated, 48 h) | intracellular cAMP levels (AR42J cells [5]) | lowest concentration at which some insulin-containing cells were seen (AR42J cells [1]; AR42J cells) | total amylase released (rat acinar cells; CCK alone vs 10^−8 M exendin-4 and CCK together) [%] | concentration at which increased cAMP was seen (rat acinar cells) | potency on [Ca2+]i relative to GLP-1 (AR42J cells [3]) |
| --- | --- | --- | --- | --- | --- | --- | --- | --- | --- | --- | --- | --- | --- | --- | --- | --- | --- | --- | --- |
| CC[C@H](C)[C@H](NC(=O)[C@H](Cc1ccccc1)NC(=O)[C@H](CCC(=O)O)NC(=O)[C@H](CCCCN)NC(=O)[C@H](C)NC(=O)[C@H](C)NC(=O)[C@H](CCC(N)=O)NC(=O)CNC(=O)[C@H](CCC(=O)O)NC(=O)[C@H](CC(C)C)NC(=O)[C@H](Cc1ccc(O)cc1)NC(=O)[C@H](CO)NC(=O)[C@H](CO)NC(=O)[C@@H](NC(=O)[C@H](CC(=O)O)NC(=O)[C@H](CO)NC(=O)[C@@H](NC(=O)[C@H](Cc1ccccc1)NC(=O)[C@@H](NC(=O)CNC(=O)[C@H](CCC(=O)O)NC(=O)[C@H](C)NC(=O)[C@@H](N)Cc1c[nH]cn1)[C@@H](C)O)[C@@H](C)O)C(C)C)C(=O)N[C@@H](C)C(=O)N[C@@H](Cc1c[nH]c2ccccc12)C(=O)N[C@@H](CC(C)C)C(=O)N[C@H](C(=O)N[C@@H](CCCCN)C(=O)NCC(=O)N[C@@H](CCCNC(=N)N)C(N)=O)C(C)C [GLP-1] | 26 | 0.4 | ~10 | ~25 | 20 | ~6 | fully half | ~25 | below the level of detectability | approximately 6 times | 1.5–2.5 fold | approximately 50% | demonstrated a 187 bp rat insulin I and II mRNA | detected | not altered |  |  |  |  |
| exendin-4 |  |  |  | ~25 |  |  |  |  |  |  |  |  |  |  | did not alter | 10^−11 molar | 16 | 10^−8 M | approximately one order of magnitude more potent |
